{"source": "patent US20090176718A1", "about": "“Berry Preparations For Treatment Of Diabetes And Metabolic Syndrome” (priority 2007, published 2009)", "key": {"[1]": {"tested_on": "male C57bl/6J mice fed very high-fat diet (diet induced diabetes)", "assay": "Blood glucose levels in food restricted high-fat-diet (diabetic) C57BL/6J mice after gavage, vehicle 66% LABRASOL", "format": "in vivo, mouse", "conditions": "for Hypoglycemic activity (in words): 300 mg/kg; for % decrease from 0 h / Blood glucose, 6 hours: 6 hours", "source_text": "The C57B6 mouse strain becomes diabetic when maintained on a high fat diet, it therefore serves as a model for Type 2 diabetes. A screen for treatments effective against diet induced diabetes utilizes male C57BL/6J mice (4-5 week old, 19-20 g) fed a high-fat diet (60% fat in kcal) for 10-16 weeks. This diet induces obesity and diabetes in this mouse strain. Extracts that induce a 20-40% decline in the blood glucose level are used for further testing.\nFive-week-old male C57bl/6J mice were purchased from Jackson Labs (Maine) and were acclimatized for 1 week before being randomly assigned into the experimental groups. The animals were housed four to a cage with free access to water in a room with a 12:12 hour light-dark cycle (7:00 AM-7:00 PM), a temperature of 24±1° C., and the animals were weighed weekly. During the acclimatization period, each animal was fed a regular diet ad libitum. At 6-weeks old, the mice were randomly divided into two groups: low fat or very high fat fed groups. The mice continued to receive either a low fat diet (LFD) or very high-fat diet (VHFD) for a 12-week period. The high-fat diet food was purchased from Research Diets Inc., and the nutrition content of very high-fat diet food was similar to that of the low fat diet food except that carbohydrates were lower (70 kcal % vs. 20 kcal %) and the addition of more lard (10 kcal % vs. 60 kcal %) in the diet. Body weights were measured weekly, and at every other week blood was collected for blood glucose analysis. […] Animals fed with LFD were also fasted for 4 hours. […] As a positive control, metformin (Fortamet®, Gluocphase®, Glumetza®, Romet®) was administered instead of plant extract at a dose of 300 mg/kg (MET300). […] Without being limited by theory, metformin may act by increasing insulin sensitivity via increasing the utilization of glucose. The experimental protocols were approved by Rutgers University Institutional Care and Use Committee and followed federal, and state laws.\nAll treatments were provided by gavage with a vehicle of 66% LABRASOL®, a lipid-based self-emulsifying excipient. Abbreviations for Table 1 are as follows: FC=crude extract, F2=anthocyanin enriched extract, FT=treated extract to promote chalcone formation, metformin is a drug used as a positive control. The results were as follows:\nAll treatments were provided by gavage with a vehicle of 66% LABRASOL®. Abbreviations for Table 2 are as follows: FC=crude extract, F2=anthocyanin-enriched extract, FT=treated extract to promote chalcone formation, metformin is a drug used as a positive control; *:p<0.05; **:p<0.01; ***:p<0.001 vs 0 hours; c:p<0.05; cc:p<0.01; ccc:p<0.001 vs LABRASOL®. The results were as follows:\nAll treatments were provided by gavage with a vehicle of 66% LABRASOL®. Abbreviations for Table 3 are as follows: FT=treated extract to promote chalcone formation, F2=anthocyanin enriched extract, MBCE=maqui berry crude extract, MBA=maqui berry anthocyanin-rich extract, metformin is a drug used as a positive control; *:p<0.05; **:p<0.01; ***:p<0.001 vs. 0 hours; c:p<0.05; cc:p<0.01; ccc:p<0.001 vs. LABRASOL®.\nThe hypoglycemic effects of delphinidin-3-glucoside (Dp 3-glc) and malvidin-3-glucoside (Mv-3-glc) relative to blueberry anthocyanin-enriched extracts and metformin in insulin resistant C57bl/6J mice were investigated. Malvidin glycosides are the predominant anthocyanins of the lowbush blueberry extracts. Delphinidin-3-glucoside likely is a major component of the blueberry extracts. It is reported to be the active hypoglycemic compound from the leaves of Vaccinium species. The animals were maintained on a high fat diet and food restricted 4 hours prior to treatment by gavage. The extracts and metformin were formulated with 66% Labrasol as the delivery vehicle"}, "[2]": {"tested_on": "food restricted C57B6 mice", "assay": "Blood glucose levels in food restricted C57B6 mice using water as the gavage vehicle", "format": "in vivo, mouse", "conditions": "Table 5, 300 mg/kg gavage", "method": "Five-week-old male C57bl/6J mice were purchased from Jackson Labs (Maine) and were acclimatized for 1 week before being randomly assigned into the experimental groups. The animals were housed four to a cage with free access to water in a room with a 12:12 hour light-dark cycle (7:00 AM-7:00 PM), a temperature of 24±1° C., and the animals were weighed weekly. During the acclimatization period, each animal was fed a regular diet ad libitum. At 6-weeks old, the mice were randomly divided into two groups: low fat or very high fat fed groups. The mice continued to receive either a low fat diet (LFD) or very high-fat diet (VHFD) for a 12-week period. The high-fat diet food was purchased from Research Diets Inc., and the nutrition content of very high-fat diet food was similar to that of the low fat diet food except that carbohydrates were lower (70 kcal % vs. 20 kcal %) and the addition of more lard (10 kcal % vs. 60 kcal %) in the diet. Body weights were measured weekly, and at every other week blood was collected for blood glucose analysis. Animals fed with VHFD were fasted for 4 hours and fed orally (gavage) with plant extracts (500 mg/kg) or […] to test efficacy of plant extracts. Animals fed with LFD were also fasted for 4 hours. Blood glucose readings are made 0 hours, 3 hours, and 6 hours after treatment (animals were fasted during the testing period). As a positive control, metformin (Fortamet®, Gluocphase®, Glumetza®, Romet®) was administered instead of plant extract at a dose of 300 mg/kg (MET300). […] Without being limited by theory, metformin may act by increasing insulin sensitivity via increasing the utilization of glucose. The experimental protocols were approved by Rutgers University Institutional Care and Use Committee and followed federal, and state laws.\nThe MBA was active at both 500 mg/kg and 250 mg/kg. Therefore, the use of Labrasol as a bioenhancing agent dose was not necessary with the MBA. A robust response was seen when Labrasol was not included in the dosing vehicle."}, "[3]": {"conditions": "Example 3, 300 mg/kg by gavage with Labrasol, insulin resistant C57bl/6J mice"}, "[4]": {"conditions": "Table 4, insulin resistant C57bl/6J mice, 300 mg/kg gavage in 66% Labrasol"}, "[5]": {"conditions": "Table 2, 300 mg/kg gavage in 66% LABRASOL"}, "[6]": {"conditions": "Table 3, 250 mg/kg gavage in 66% LABRASOL"}}, "note": "Marks after values point to notes of the source that are not given here."}
{"compound": "OC[C@H]1O[C@@H](Oc2cc3c(O)cc(O)cc3[o+]c2-c2cc(O)c(O)c(O)c2)[C@H](O)[C@@H](O)[C@@H]1O", "note": "[Dp 3-glc, delphinidin-3-glucoside]", "values": [{"measurement": "Hypoglycemic activity (in words)", "setting": "[1]; [3]", "value": "did not significantly show hypoglycemic activity"}, {"measurement": "Hypoglycemic activity (in words)", "setting": "[1]; Example 3, 300 mg/kg by gavage with Labrasol, insulin resistant C57bl/6J mice, listed as delphinidin-3-O-glucoside", "value": "did not have significant hypoglycemic activity"}, {"measurement": "Blood glucose, 0 hours", "setting": "[1]; [4]", "value": "214 ± 7.4"}, {"measurement": "% decrease from 0 h", "setting": "[1]; [4]", "value": "−17 ± 5.7", "unit": "%"}, {"measurement": "Blood glucose, 6 hours", "setting": "[1]; [4]", "value": "186.6 ± 15.5"}]}
{"compound": "COc1cc(-c2[o+]c3cc(O)cc(O)c3cc2O[C@@H]2O[C@H](CO)[C@@H](O)[C@H](O)[C@H]2O)cc(OC)c1O", "note": "[Mv-3-glc, malvidin-3-glucoside]", "values": [{"measurement": "Lowered blood glucose levels by", "setting": "[1]; Example 3, 300 mg/kg by gavage with Labrasol", "value": 34, "unit": "%"}, {"measurement": "Hypoglycemic activity (in words)", "setting": "[1]; [3]", "value": "comparable to the hypoglycemic activity of the phenolics-rich extract at a dose of 500 mg/kg"}, {"measurement": "Hypoglycemic activity (in words)", "setting": "[1]; Example 3, 300 mg/kg by gavage with Labrasol, insulin resistant C57bl/6J mice, listed as malvidin glucoside", "value": "comparable to the metformin positive control at 300 mg/kg"}, {"measurement": "Blood glucose, 0 hours", "setting": "[1]; [4]", "value": "204 ± 20.8"}, {"measurement": "% decrease from 0 h", "setting": "[1]; [4]", "value": "−31 ± 6.3", "unit": "%"}, {"measurement": "Blood glucose, 6 hours", "setting": "[1]; [4]", "value": "134.4 ± 8.3"}]}
{"compound": "CN(C)C(=N)N=C(N)N", "note": "[Metformin, metformin]", "values": [{"measurement": "Blood glucose, 0 hours", "setting": "[2]; 0 hours", "value": "189 ± 11.1"}, {"measurement": "% decrease from 0 hours", "setting": "[2]; 6 hours", "value": "−43.4 ± 7.8", "unit": "%"}, {"measurement": "Blood glucose, 6 hours", "setting": "[2]; 6 hours", "value": "106.8 ± 14.2"}, {"measurement": "Blood glucose, 0 hours", "setting": "[1]; Table 1, 300 mg/kg gavage in 66% LABRASOL", "value": "226 ± 18"}, {"measurement": "Blood glucose, 2 hours", "setting": "[1]; Table 1, 300 mg/kg gavage in 66% LABRASOL, 2 hours", "value": "183 ± 25"}, {"measurement": "Blood glucose, 4 hours", "setting": "[1]; Table 1, 300 mg/kg gavage in 66% LABRASOL, 4 hours", "value": "165 ± 29"}, {"measurement": "% decrease from 0 hours", "setting": "[1]; Table 1, 300 mg/kg gavage in 66% LABRASOL, last time point 4 hours", "value": "−27", "unit": "%"}, {"measurement": "Blood glucose, 0 hours", "setting": "[1]; [5]", "value": "207 ± 18"}, {"measurement": "Blood glucose, 3 hours", "setting": "[1]; [5]", "value": "211 ± 15"}, {"measurement": "Blood glucose, 5 hours", "setting": "[1]; Table 2, 300 mg/kg gavage in 66% LABRASOL, 5 hours", "value": "128 ± 17**^cc"}, {"measurement": "% decrease from 0 hours", "setting": "[1]; Table 2, 300 mg/kg gavage in 66% LABRASOL, last time point 5 hours", "value": "−38", "unit": "%"}, {"measurement": "Blood glucose, 0 hours", "setting": "[1]; [6]", "value": "249 ± 29"}, {"measurement": "Blood glucose, 3 hours", "setting": "[1]; [6]", "value": "273 ± 32"}, {"measurement": "Blood glucose, 6 hours", "setting": "[1]; [6]", "value": "214 ± 39"}, {"measurement": "% decrease from 0 hours", "setting": "[1]; Table 3, 250 mg/kg gavage in 66% LABRASOL, last time point 6 hours", "value": "−14", "unit": "%"}, {"measurement": "Blood glucose, 0 hours", "setting": "[1]; [4]", "value": "206.7 ± 11"}, {"measurement": "% decrease from 0 h", "setting": "[1]; [4]", "value": "−49 ± 4.5", "unit": "%"}, {"measurement": "Blood glucose, 6 hours", "setting": "[1]; [4]", "value": "108 ± 8.9"}]}
